Experimental data from US20110257258A1 (priority 2006, published 2011).

Columns and labels:
[1] = system: H5N1; assay type: cell-based
[2] = system: Avian Influenza virus; parameters: species or system Human; details: in vivo
[3] = system: Avian Influenza virus; parameters: species or system Human; details: in vivo; remark: listed apart in the source

Row | Compound | inhibits H5N1 infections in mammalian cells by blocking the attachment and entry into the cells [1] | adults in the test group developing Avian Influenza symptoms [2] | abatement of Avian Influenza symptoms [3] | recovery from the Avian Influenza illness [3]
1 | theaflavin-3′-gallate | inhibits H5N1 infections |  |  | 
2 | theaflavin-3,3′-digallate | inhibits H5N1 infections |  |  | 
3 | O=C(O[C@@H]1Cc2c(O)cc(O)cc2O[C@@H]1c1cc(=O)c(O)c2c(O)c(O)cc([C@H]3Oc4cc(O)cc(O)c4C[C@H]3O)c2c1)c1cc(O)c(O)c(O)c1 [theaflavin-3-monogallate] | inhibits H5N1 infections |  |  | 
4 | (−)-epigallocatechin gallate [EGCG] | inhibits H5N1 infections |  |  | 
5 | O=c1c(O)cc([C@H]2Oc3cc(O)cc(O)c3C[C@H]2O)cc2c([C@H]3Oc4cc(O)cc(O)c4C[C@H]3O)cc(O)c(O)c12 [theaflavin] | inhibits H5N1 infections | None | abate more rapidly than normal | fully recovers
